From US20170314056A1, “METHOD OF USING NEAR INFRARED FLUORESCENT DYES FOR IMAGING AND TARGETING CANCERS” (priority 2010, published 2017)
“Also recorded” adds a separate entry of the source.

Columns and labels:
[1] = test system: organic anion transporting peptides (OATPs); test: Blockade of dye uptake into ARCaPM cells by BSP; assay type: cell-based, human; settings: 250 μM BSP
Experimental: ARCaPM Cells were plated on live-cell imaging chambers from World Precision Instrument (Sarasota, Fla.) overnight. Cells were treated with 20 μM IR-780 and 250 μM BSP at the same time and cells were imaged using a Perkin-Elmer Ultraview ERS spinning disc confocal microscope.
To determine if the cyanine dye uptake and accumulation in cancer cells was dependent upon OATPs, cells were preincubated with 250 μM bromosulfophthalein (BSP), a competitive inhibitor of organic anion transporting peptides (OATPs) (25), for 5 minutes prior to incubating the cells with cyanine dyes. The uptake and accumulation of cyanine dyes in the presence and absence of BSP were conducted in the stage warmer incubator for a period of 35 minutes. The levels of cyanine dye taken up and accumulated in normal prostate (P69) and prostate cancer (ARCaPM) cells were determined and compared on a real-time basis.

[2] = mouse, in vivo
Experimental: In control mice, the same volume of PBS was injected. The body weight and lethality of these mice were closely followed for 28 days.

[3] = test system: MIA PaCa-2 human pancreatic cancer cells; test: Structural requirement screen for cancer cell uptake and retention; assay type: cell-based; settings: cultured MIA PaCa-2 cells
Experimental: FIG. 45 depicts structural requirement of heptamethine cyanine dyes for cancer cell uptake and retention in accordance with various embodiments of the present invention. A series of heptamethine cyanine dyes and their derivatives were screened in cultured MIA PaCa-2 human pancreatic cancer cells with parental MHI-148 served as a positive control.
Cells (1×10^4/well) were seeded on vitronectin-coated four-well chamber slides (Nalgen Nunc, Naperville, Ill.) and incubated with T-medium containing 5% FBS for 24 h. After the cells had attached to the chamber slides, the cells were washed with PBS (Phosphate Buffered Saline) and exposed to the cyanine dye at a concentration of 20 μM in T-medium. The slides were incubated at 37° C. for 30 min, washed twice with PBS to remove excess dyes, and cells were fixed with 10% formaldehyde at 4° C. The slides were then washed twice with PBS and covered with glass coverslips with an aqueous mounting medium (Sigma-Aldrich, St. Louis, Mo.). Images were recorded by confocal laser microscopy (Zeiss LSM 510 META, Germany) using a 633 nm excitation laser and 670-810 nm long pass filter, or a fluorescence microscope (Olympus 1×71; Olympus, Melville, N.Y.) equipped with a 75 W Xenon lamp and an Indo-Cyanine Green filter cube (excitation 750-800 nm; emission 820-860 nm) (Chroma, Rockingham, Vt.).

[4] = test system: human renal cancer SN12C at subcutaneous sites; test: Structural requirement of uptake and retention by tumor tissues in mice; assay type: in vivo; settings: i.p. 10 nmol per mouse, 24 hrs
Experimental: FIG. 46 depicts structural requirement of the uptake and retention of heptamethine cyanine dyes by tumor tissues in mice in accordance with various embodiments of the present invention. Mice bearing human renal cancer SN12C at subcutaneous sites were injected i.p. with MHI-148, IR-1, IR-2, IR-3 and IR-4 heptamethine cyanine dyes at a dose of 10 nmol per mouse. Whole-body optical imaging was taken at 24 hrs using a Kodak Imaging System.
During imaging, mice were maintained in an anesthetized state.

[5] = test system: cultured human cancer cell lines in vitro and their xenograft tumors in vivo; test: Classification of heptamethine cyanine dyes as active or inactive; assay type: cell-based; set-up: key: Active: Activity of the dyes denotes specific uptake by cultured human cancer cell lines in vitro and their xenograft tumors in vivo, setermined by NIR fluorescence imaging.; Inactive: These heptamethine cyanine dyes were not accumulated in tumor cells in vitro and xenograft tumors in vivo; settings: specific uptake in vitro and in xenograft tumors in vivo, NIR fluorescence imaging
Source text: A comparative analysis also uncovered several common structural features of heptamethine cyanine dyes accounting for their preferential uptake and retention by cancer cells. […] A rigid cyclohexenyl ring in the heptamethine chain with a central chlorine atom maintains photostability, increases quantum yield, decreases photobleaching, and reduces dye aggregation in solution (1).

Compound	effect on uptake of IR-780 by ARCaPM cells ([1]; 20 μM IR-780)	effect on uptake of IR-783 by ARCaPM cells ([1]; 20 μM IR-783)	toxicity as evidenced by gains of body weight [2]	uptake and retention by cancer cell line compared with MHI-148 [3]	tumor fluorescence signal in whole-body optical imaging [4]	Active and inactive heptamethine cyanine dyes [5]
O=C1OC(c2ccc(O)c(S(=O)(=O)O)c2)(c2ccc(O)c(S(=O)(=O)O)c2)c2c(Br)c(Br)c(Br)c(Br)c21 [BSP, bromosulfophthalein]	complete blockade; also recorded: significantly inhibited	abolished; also recorded: abrogated				
CC1(C)C(/C=C/C=C/C=C/C=C2\N(CCCCS(=O)(=O)O)c3ccc4ccccc4c3C2(C)C)=[N+](CCCCS(=O)(=O)[O-])c2ccc3ccccc3c21 [ICG, indocyanine green, reference compound]			no toxicity was detected			
CC1(C)/C(=C\C=C2/CCCC(/C=C/C3N(CCCO)c4ccccc4C3(C)C)=C2Cl)N(CCCO)c2ccccc21 (stereo not drawn) [IR-1]				devoid of any uptake and retention	background fluorescence signals	Inactive dyes^b
CC(=O)OCCCN1/C(=C/C=C2\CCCC(/C=C/C3N(CCCOC(C)=O)c4ccccc4C3(C)C)=C2Cl)C(C)(C)c2ccccc21 (stereo not drawn) [IR-2]				devoid of any uptake and retention	background fluorescence signals	Inactive dyes^b
CC1(C)/C(=C\C=C2/CCCC(/C=C/C3N(CCCN)c4ccccc4C3(C)C)=C2Cl)N(CCCN)c2ccccc21 (stereo not drawn) [IR-3]				devoid of any uptake and retention	background fluorescence signals	Inactive dyes^b
